# Data published in patent publication US9694061B2, “Fully human antibodies to high molecular weight-melanoma associated antigen and uses thereof” (University of Pittsburgh—Of the Commonwealth System of …, priority 2008, dated 2017).
# Assays:
# [1] = test system: scFv C21; test: ELISA of synthetic peptides immobilized on plate with scFv C21; format: binding, human; conditions: peptide immobilized by 0.25% glutaraldehyde PBS
# Experimental: FIG. 7. Reactivity in ELISA of scFv C21 with synthetic peptides derived from those isolated by panning the phage display peptide library X15 with scFv C21. Ninety-six well plates were coated for 2 h at 37° C. with synthetic peptides P1C21 ( ? ), P2C21 (125 μM) ( ? ), and P3C21 (125 μM) ( ? ), in 0.25% glutaradehyde-PBS. Following blocking with PBS-1% BSA, wells were incubated for 2 h at room temperature with 50 μl of PP scFv C21 at and 50 μl of biotinylated mAb 9E10 (2.5 μg/ml 1% BSA-PBS). Binding of scFv antibody to ? peptides was detected by addition of SA-HRP. Results are expressed as absorbance at […]. […]
# The ELISA to test the reactivity of soluble scFv antibodies with synthetic peptides and melanoma cells and of mouse immune sera with melanoma cells and with peptides was performed as described (Desai et al., Cancer Res 58:2417-2425, 1998; Desai et al., J Immunol 165:3275-3283, 2000; Matsui et al., J Immunol 139:2088-2095, 1987). Results are expressed as absorbance of optical density (O.D.) at 450 nm. The competition assay to map the antigenic determinant recognized by scFv C21 was performed by mixing biotinylated scFv C21 (0.25 μg/well) with two-fold dilutions of mouse mAb or scFv PP or by mixing biotinylated mAb (at an optimal amount giving absorbance, measured at 450 nm of 1.0) with two fold dilutions of scFv PP. […]
# [2] = test system: scFv C21; test: Inhibition by synthetic peptides of scFv C21 binding to Colo38 cells; parameters: species or system human; conditions: for Inhibition of the binding of scFv C21 to HMW-MAA+ melanoma cells Colo38: soluble peptide, FIG. 8
# Experimental: FIG. 8. Inhibition of the reactivity of scFv C21 with HMW-MAA^+ cells Colo38 by synthetic peptides P1C21 and P3C21 and by modified peptide P3C21. Varying concentrations of synthetic peptides P1C21 (-●-), P3C21(-▴-), P3A5 (-⋄-), P3V7 ( ? ) and P3S10 ( ? ) were incubated for 2 h at 4° C. with 50 μl of PP scFv (1:1600 dilution in 1% BSA-PBS) and 50 μl of biotinylated mAb 9E10 (2.5 μg/ml 1% BSA-PBS). The mixture was then transferred to wells containing cells Colo38. Binding of scFvC21 was detected using SA-HRP (top panel). Results are expressed as % inhibition. The unrelated peptide MART-1 (-∇-) and the scFv #28 (bottom panel) which recognizes an unrelated HMW-MAA determinant were used as specificity controls.
# The ELISA to test the reactivity of soluble scFv antibodies with synthetic peptides and melanoma cells and of mouse immune sera with melanoma cells and with peptides was performed as described (Desai et al., Cancer Res 58:2417-2425, 1998; Desai et al., J Immunol 165:3275-3283, 2000; Matsui et al., J Immunol 139:2088-2095, 1987). Results are expressed as absorbance of optical density (O.D.) at 450 nm. The competition assay to map the antigenic determinant recognized by scFv C21 was performed by mixing biotinylated scFv C21 (0.25 μg/well) with two-fold dilutions of mouse mAb or scFv PP or by mixing biotinylated mAb (at an optimal amount giving absorbance, measured at 450 nm of 1.0) with two fold dilutions of scFv PP. […] Binding of biotinylated scFv antibodies and biotinylated mAb to target cells was measured by sequential incubation with SA-HRP and substrate as described (Noronha et al., J Immunol 161:2968-2976, 1998). The results are expressed as percent inhibition by mAb, scFv or peptide (competitor or inhibitor) of scFv or mAb binding to HMW-MAA^+ cells. The percent inhibition was calculated using the formula: % inhibition=((OD450 in the absence of inhibitor−OD450 in the presence of inhibitor)/OD450 in the absence of inhibitor)×100.
# [3] = test system: HMW-MAA^+ cells Colo38; test: Delayed-type hypersensitivity (DTH) reaction in immunized mice; format: in vivo, BALB/c mice; conditions: mice immunized six times, cells injected day 132
# Experimental: FIG. 12. DTH reaction to HMW-MAA^+ melanoma cells Colo38 in BALB/c mice immunized with peptide P1C21. Irradiated (20K rads) HMW-MAA^+ cells Colo38 (5×10^5 cells/mouse) ( ? ) and HMW-MAA^− LG2 cells (5×10^5 cells/mouse) (□) were injected on day 132 into the right and left hind footpad, respectively, of BALB/c mice, which had been immunized six times with peptide P1C21 on days 0, 21, 42, 63, 84 and 105. Amount of swelling induced by the injected cells was measured and calculated by subtracting the thickness of the footpad measured at time 0 h from that measured 24 h after the injection of cells. Mice immunized with control peptide MB1194-208 using the same schedule were injected at the same time point with either Colo38 or LG2 cells, and used as controls. *p<0.05.
# Mice which had been immunized six times with peptide P1C21 or control peptide were injected on day 132 s.c. into the right and left hind footpads with irradiated HMW-MAA^+ cells Colo38 (5×10^5 cells/injection/) and HMW-MAA^− cells LG2 (5×10^5 cells/injection/), respectively. The thickness of each footpad was measured and calculated at the indicated times as previously described (Luo et al., J Immunol 174:7104-7110, 2005, herein incorporated by reference).
# [4] = test system: HMW-MAA^+ melanoma cells Colo38; test: Immunization of BALB/c mice with peptide-KLH conjugate, HMW-MAA-specific antibodies in sera; format: in vivo; conditions: control peptide immunization
# Experimental: FIG. 9. Development of antibodies with selective reactivity with HMW-MAA^+ cells Colo38 in BALB/c mice immunized with peptide P1C21 and boosted with Colo 38 cells. Mice were immunized with KLH-conjugated peptide P1C21 ( ? ) (50 μg/injection) on day 0, 21, 42, 63, 84 and 105, and with HMW-MAA^+ Colo38 melanoma cells (5×10^5 cells/injection) on day 132. Sera were harvested one week before the first immunization, and one week after each immunization. Two-fold dilutions of sera (100 μl/well) were incubated with HMW-MAA^+ Colo38 melanoma cells (1×10^5/well). Following an additional incubation with HRP-conjugated goat anti-mouse IgG antibodies, the reaction was developed using TMB substrate. O.D. was measured at 450 nm. Results are expressed as the mean±SD of the highest dilution of sera giving 50% of the maximal binding to HMW-MAA^+ cells. Sera from mice immunized with peptide MB1194-208 were used as controls. *p<0.05.
# FIG. 10. Flow cytometry analysis of HMW-MAA^+ M14#5/HMW-MAA melanoma cells stained with antibodies elicited by peptide P1C21 and HMW-MAA^+ cells Colo38 in BALB/c mice. […] Cells were then analyzed with a FACScan™ flow cytometry. Results are expressed as fluorescence intensity (empty histogram). […]
# FIG. 11. […] Antigens were eluted from the immunoadsorbent, and analyzed by SDS-PAGE in an 8% polyacrylamide gel. […]
# [5] = test system: scFv C21; test: Kinetic binding studies by surface plasmon resonance (BIACORE 3000); parameters: species or system human; conditions: scFv C21 immobilized, 25° C., peptide 1 to 32 μM, 1:1 Langmurian model
# Experimental: Binding experiments were performed with the surface plasmon resonance based biosensor instrument BIACORE™ 3000 (Biacore AB, Uppsala, Sweden), at 25° C. Immobilization of scFv C21 in the sensor surface was performed following the standard amine coupling procedure according to the manufacturer's instructions. Briefly, 35 μl of a solution containing 0.2 M N-ethyl-N′-(dimethylaminopropyl) carbodiimide (EDC) and 0.05M N-hydroxysuccinimide (NHS), were injected at a flow rate of 5 μl/min to activate carboxyl groups on the sensor chip surface. scFv C21 ([…] of 10 mM NaOAc buffer, pH 5.0) was flowed over the chip surface at a flow rate of 20 μl/min until the desired bound protein level was reached. Unreacted scFv C21 was washed out and unreacted activated groups were blocked by the injection of 35 μl of 1 M ethanolamine at 5 μl/min. The final immobilization response of scFv C21 was 3,000 RU. A reference surface was generated simultaneously under the same conditions but without scFv C21 injection and used as a blank to correct for instrument and buffer artifacts. Peptides were injected at variable concentrations at different flow rates from 20-100 μl/min. Peptides binding to scFv C21 immobilized on the chip was monitored in real time.
# To exclude that binding constants obtained from SPR were not affected by either rebinding of the analyte or mass transport effects, studies were repeated at different flow rates (20-100 μl/min). Kinetic constants obtained at both flow rates remained unchanged.
# To evaluate binding, peptides P1C21 and P3C21 were injected at concentrations ranging from 1 to 32 μM. The resulting sensograms were used for estimation of the kinetic constants (kon and koff) by global fitting to the 1:1 Langmurian interaction model. The binding constant (Kd) was calculated for each peptide as a koff/kon ratio.
substance,measurement,setting,value
EARNWHDFPIHPRTL (listed as Homo sapiens) [P2C21],Reactivity of immobilized synthetic peptide with scFv C21 in ELISA,[1],reacted specifically with scFv C21
same,Inhibition of the binding of scFv C21 to HMW-MAA+ melanoma cells Colo38,[2],did not inhibit the binding of scFv C21
"MB1194-208: irrelevant peptide derived from the sequence of the proteasome subunit MB1, used as control (AYGVMDRGYSYDLEV)",DTH response: swelling of footpad injected with Colo38 cells versus LG2 cells,[3],no swelling of the footpad was observed
same,Reactivity of immune sera with Colo38 cells,[4],displayed no reactivity with Colo38 cells
RPYRYDPLGDLKSRH [P3C21],Reactivity of immobilized synthetic peptide with scFv C21 in ELISA,[1],did not
same,Inhibition of the binding of scFv C21 to HMW-MAA+ melanoma cells Colo38,[2],inhibited the binding of scFv C21 to HMW-MAA^+ cells in a dose dependent fashion
same,Koff,[5],0.0655 s⁻¹
same,Kon,[5],2170 M⁻¹ s⁻¹
RPYRYDPLGSLKSRH [P3S10],Effect of Asp to Ser replacement at position 10 on ability of P3C21 to inhibit reactivity of scFv C21 with Colo38 cells,[2]; compared with P3C21,only a slight effect
same,Koff,[5],0.00307 s⁻¹
same,Kon,[5],917 M⁻¹ s⁻¹
